In one test the target is T1, endogenous hPTHR1 (Homo sapiens, UniProt Q03431).
T1 construct: Saos-2, in which is endogenously expressed the hPTHR1; endogenous in cells
T1 sequence (Q03431 27-593): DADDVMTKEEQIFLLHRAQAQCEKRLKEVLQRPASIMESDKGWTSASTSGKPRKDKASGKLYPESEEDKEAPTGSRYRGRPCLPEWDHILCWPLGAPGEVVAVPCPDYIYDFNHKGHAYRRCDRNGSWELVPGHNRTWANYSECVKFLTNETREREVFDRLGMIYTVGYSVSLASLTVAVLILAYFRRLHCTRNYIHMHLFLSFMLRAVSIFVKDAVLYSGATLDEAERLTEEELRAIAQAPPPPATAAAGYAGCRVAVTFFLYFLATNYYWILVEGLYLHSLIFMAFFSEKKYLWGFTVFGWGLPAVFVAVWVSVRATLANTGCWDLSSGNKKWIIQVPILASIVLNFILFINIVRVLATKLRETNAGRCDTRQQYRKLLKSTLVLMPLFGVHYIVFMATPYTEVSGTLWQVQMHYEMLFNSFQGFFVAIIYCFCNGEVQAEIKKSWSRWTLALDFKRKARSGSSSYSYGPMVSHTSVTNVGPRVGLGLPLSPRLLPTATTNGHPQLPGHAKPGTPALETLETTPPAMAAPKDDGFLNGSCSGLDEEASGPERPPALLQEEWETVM
In words: Antagonism of PTH(1-34)- and PTHrP(1-36)-induced cAMP response (GloSensor) in SGS-72 cells. The test is classed as cell-based. The method, then:
cAMP signaling was assessed in the HEK293-derived or SaOS2-derived cell lines stably expressing the luciferase-based GloSensorTM cAMP reporter ([…] al., Paper presented at: Novel Signaling Mechanisms and Bone Cell Biology 2014; Binkowski et al., Methods in molecular biology. 756:263-271). HEK-293 cells were further transfected to stably express the hPTHR1, hPTHR1-H223R, or hPTHR1-T410P. The cells were seeded into 96-well white plates and were assayed 24 to 48 hours post-confluency. Assays were performed at room temperature in CO2-independent culture media (Life Technologies, Corp., Carlsbad, Calif.) containing 0.1% BSA (CIDB). The cells were pre-loaded with luciferin (0.5 mM in CIDB) for 15 minutes, then PTH peptides were added at varying concentrations. cAMP-dependent luminescence was measured at two-minute intervals using a PerkinElmer Envision plate reader. The time at which maximum luminescence (cps) observed with agonist alone, typically at 10-20 minutes after agonist addition, was used to obtain data from wells containing antagonist with or without agonist, to thus generate antagonist ligand dose-response curves. The resulting cps values were then plotted against ligand concentration using GraphPad Prism 7.0 software and a four-parameter logistics curve fitting equation, which yielded parameters of inhibitory potency (pIC50). Pharmacological properties of the ligands were assessed in cells expressing the PTHR1 and the GloSensorTM cAMP reporter. The assays used GP-2.3 cells, derived from HEK293 cells by stable transfection with the hPTHR1 and GloSensorTM, as well as SGS-72 cells, which are derived from the human osteosarcoma cell line, Saos-2, in which is endogenously expressed the hPTHR1, by stable transfection with GloSensorTM. Binding of representative polypeptides to the PTHR1 was assessed in GP-2.3 cells by radioligand competition methods (FIGS. 1A and 1B, Table 3). […] In Table 5, antagonist assays were performed in SGS-72 cells (SaOS2 cells with stable GloSensorTM cAMP reporter) at room temperature. […] The mean (±sem) concentration of antagonist that inhibited the maximum agonist-induced response observed in the absence of antagonist (at 40 minutes) is reported in units of -log M (pIC50), and the corresponding nanomolar value is shown below each pIC50 value. Data are means of the number of seven experiments. The PTH(1-34)-induced maximum luminescence was 500,000 cps and the basal was 5,000 cps. TMR indicates Lys13 modified at epsilon amino function with TMR. The data are illustrated in FIG. 7A. […] Date are means (±SEM) of the number of separate experiments indicated by n.

Test [1] concerns the target T2, PTHR1 (Homo sapiens, UniProt Q03431).
T2 construct: expressed in transfected cells; host or cells: GP-2.3 (HEK-293 stably transfected with hPTHR1 and GloSensor)
T2 sequence (Q03431 27-593): T1 sequence (Q03431 27-593)
In words: Residual agonist activity, cAMP luminescence in GP-2.3 cells. As to conditions: ligands applied directly to GP-2.3 cells. The test is classed as cell-based. The method, then:
(§1) cAMP signaling was assessed in the HEK293-derived or SaOS2-derived cell lines stably expressing the luciferase-based GloSensor™ cAMP reporter (Hattersley et al., Paper presented at: Novel Signaling Mechanisms and Bone Cell Biology 2014; Binkowski et al., Methods in molecular biology. 756:263-271). HEK-293 cells were further transfected to stably express the hPTHR1, hPTHR1-H223R, or hPTHR1-T410P. The cells were seeded into 96-well white plates and were assayed 24 to 48 hours post-confluency. Assays were performed at room temperature in CO2-independent culture media (Life Technologies, Corp., Carlsbad, Calif.) containing 0.1% BSA (CIDB). The cells were pre-loaded with luciferin (0.5 mM in CIDB) for 15 minutes, then PTH peptides were added at varying concentrations. cAMP-dependent luminescence was measured at two-minute intervals using a PerkinElmer Envision plate reader. The time at which maximum luminescence (cps) observed with agonist alone, typically at 10-20 minutes after agonist addition, was used to obtain data from wells containing antagonist with or without agonist, to thus generate antagonist ligand dose-response curves. The resulting cps values were then plotted against ligand concentration using GraphPad Prism 7.0 software and a four-parameter logistics curve fitting equation, which yielded parameters of inhibitory potency (pIC50).

A further test has as its target T3, PTHR1 (hPTHR1) (Homo sapiens, UniProt Q03431).
T3 construct: expressed in transfected cells; host or cells: GP-2.3 (HEK-293 stably transfected with hPTHR1 and GloSensor)
T3 sequence (Q03431 27-593): T1 sequence (Q03431 27-593)
In words: Radioligand competition binding in GP-2.3 cells. As to conditions: radioligand competition. The method, then:
(§2) Intact cell binding reactions were performed in 96-well plates, and, following incubation, the cells were lysed with 1N NaOH, and the lysate was counted for gamma radiation. For membrane dissociation assays, reactions were assembled in 15 cc tubes, and, at times following membrane addition (t=0), aliquots were withdrawn and filtered through a well of a vacuum filtration 96-well plate, rinsed, and, after washing, the filters were removed and counted for gamma irradiation. […] Curves were fit to the data using a four-parameter sigmoidal dose-response equation.
(§3) Pharmacological properties of the ligands were assessed in cells expressing the PTHR1 and the GloSensor™ cAMP reporter. The assays used GP-2.3 cells, derived from HEK293 cells by stable transfection with the hPTHR1 and GloSensor™, as well as SGS-72 cells, which are derived from the human osteosarcoma cell line, Saos-2, in which is endogenously expressed the hPTHR1, by stable transfection with GloSensor™. Binding of representative polypeptides to the PTHR1 was assessed in GP-2.3 cells by radioligand competition methods (FIGS. 1A and 1B, Table 3).
The assays were performed in GP-2.3 cells with the two tracer ^125I-radioligands shown; values are half-maximal inhibitory concentration (pIC50) and corresponding nanomolar value (below) derived from curve fitting ligand dose-response data. Data are means of four experiments.
Background: Displacement assays read how much labelled ligand stays bound in the presence of the test substance.

Test [2] has as its target T2, PTHR1. In words: Antagonism of PTH(1-34)-induced cAMP response (GloSensor) in GP-2.3 cells. Conditions: PTH(1-34) 1 nM. In kind it is cell-based. The method, then: as §1, §3
z,999 concentration of antagonist that inhibited the maximum response to PTH(1-34)-induced in the absence of antagonist (at ˜40 minutes) is reported in units of -log M (pIC50), and the corresponding nanomolar value is shown below each pIC50 value. Data are means of the number of experiments indicated (n). The PTH(1-34)-induced maximum luminescence was ˜80,000 cps and the basal was ˜1,000 cps. TMR indicates Lys13 modified at epsilon amino function with TMR, P vs. inhibition by dW12,Y34-bPTH(7-34).

The target of test [3] is T2, PTHR1. The test can be described thus: Confocal microscopy of TMR-ligand internalization in GP-2.3 cells. The test is classed as cell-based. As to conditions: 15 minutes after ligand addition (100 nM). The protocol: Confocal fluorescence microscopy images were acquired using Olympus FV-1000 MPE confocal system (Center Valley, Pa. 18034), performed by the Photopathology Core facility of the Wellman Center for Photomedicine at the Massachusetts General Hospital. Images were captured with a 40× (LUMPLFL 0.8NA WD 3.3 mm) water-immersion objective, and with 405 nm and 559 nm excitation lasers, at a resolution of 1024×1024.
The cells were cultured on glass cover-slips in 24-well plates to ˜75% of confluency, then treated with PTH^TMR ligand (100 nM) in Hank's balanced salts buffer with 0.1% BSA (HBB) for 15 minutes at room temperature, then rinsed thrice with HBB, fixed with 4% formalin for 5 minutes, mounted with vector-shield containing DAPI on a glass microscope slide, viewed on the microscope, and digitally imaged.

Test [4] has as its target T2, PTHR1. In words: PTHR1 binding kinetics (dissociation) in GP-2.3 cell membranes. The protocol: as §2, with “Ligand binding to the PTH1 R was assessed in intact GP-2.3 cells or membranes prepared from GP-2.3 cells using a ^125I-PTH peptide analog as tracer radioligand and were incubated at room temperature for 90 minutes. Intact” for “Intact”

Where two headings read alike, the source gives them in different places. Where a SMILES comes first, the peptide text is derived from it. [ ]: non-standard residue; d: D form. The star is where a group is joined. 5TAMRA = CN(C)c1ccc2c(c1)Oc1cc(N(C)C)ccc1C21OC(=O)c2cc(C(=O)*)ccc21

As to `CC[C@H](C)[C@H](N)C(=O)N[C@@H](CCC(N)=O)C(=O)N[C@@H](CC(C)C)C(=O)N[C@@H](CCSC)C(=O)N[C@@H](Cc1c[nH]cn1)C(=O)N[C@@H](CCC(N)=O)C(=O)N[C@@H](CCCNC(=N)N)C(=O)N[C@@H](C)C(=O)N[C@@H](CCCCN)C(=O)N[C@@H](Cc1c[nH]c2ccccc12)C(=O)N[C@H](C(=O)N[C@@H](CCC(N)=O)C(=O)N[C@@H](CC(=O)O)C(=O)N[C@@H](C)C(=O)N[C@@H](CCCNC(=N)N)C(=O)N[C@@H](CCCNC(=N)N)C(=O)N[C@@H](CCCNC(=N)N)C(=O)N[C@@H](C)C(=O)N[C@@H](Cc1ccccc1)C(=O)N[C@@H](CC(C)C)C(=O)N[C@@H](Cc1c[nH]cn1)C(=O)N[C@@H](CCCCN)C(=O)N[C@@H](CC(C)C)C(=O)N[C@H](C(=O)N[C@@H](C)C(=O)N[C@@H](CCC(=O)O)C(=O)N[C@H](C(=O)N[C@@H](Cc1c[nH]cn1)C(=O)N[C@H](C(=O)N[C@@H](C)C(=O)N[C@@H](CCC(=O)O)C(=O)N[C@H](C(N)=O)[C@@H](C)CC)[C@@H](C)O)[C@@H](C)CC)[C@@H](C)CC)[C@@H](C)CC` [compound 1950, LA-PTH(5-36)] (H-IQLMHQRAKWIQDARRRAFLHKLIAEIHTAEI-NH2; N-terminus assumed), the “fold more effective inhibition than dTrp^12-PTH(7-34)-1894” value at endogenous hPTHR1 (PTH(1-34) 0.3 nM) is on record as roughly 30 fold; at PTHR1 [2] it was “five”. For the same compound, the IC50 on endogenous hPTHR1 (antagonist pre-treatment 10 minutes, PTHrP(1-36) 0.3 nM, seven experiments, read-out: corresponding nanomolar value vs. PTHrP(1-36) (Table 5)) is 1 nM; on endogenous hPTHR1 (antagonist pre-treatment 10 minutes, PTHrP(1-36) 0.3 nM, seven experiments, read-out: pIC50 vs. PTHrP(1-36) (Table 5) (converted)), 0.871 nM; on endogenous hPTHR1 (corresponding nanomolar value vs. PTH(1-34) (Table 5), antagonist pre-treatment 10 minutes, PTH(1-34) 0.3 nM, seven experiments), 1 nM; on endogenous hPTHR1 (pIC50, inhibition of cAMP signal induced by PTH(1-34), PTH(1-34) 0.3 nM), 2.51 nM; on endogenous hPTHR1 (pIC50 vs. PTH(1-34) (Table 5), antagonist pre-treatment 10 minutes, PTH(1-34) 0.3 nM, seven experiments), 0.832 nM; against PTHR1 [2] (pIC50, inhibition of cAMP signal induced by PTH(1-34)), 100 nM. For the same compound, at PTHR1 [1], the “residual agonist activity compared with dTrp^12-PTH(7-34)-1894” value was “less residual agonist activity”. Besides, the “apparent PTHR1 affinity compared with dTrp^12-PTH(7-34)-1894” value on PTHR1 (hPTHR1) is reported as “at least as strong”.
Consider `CC[C@H](C)[C@H](N)C(=O)N[C@@H](CCC(N)=O)C(=O)N[C@@H](CC(C)C)C(=O)N[C@@H](CCSC)C(=O)N[C@@H](Cc1c[nH]cn1)C(=O)N[C@@H](CCC(N)=O)C(=O)N[C@@H](CCCNC(=N)N)C(=O)N[C@H](Cc1c[nH]c2ccccc12)C(=O)N[C@@H](CCCCNC(=O)c1ccc2c(c1)C(=O)OC21c2ccc(N(C)C)cc2Oc2cc(N(C)C)ccc21)C(=O)N[C@@H](Cc1c[nH]c2ccccc12)C(=O)N[C@H](C(=O)N[C@@H](CCC(N)=O)C(=O)N[C@@H](CC(=O)O)C(=O)N[C@@H](C)C(=O)N[C@@H](CCCNC(=N)N)C(=O)N[C@@H](CCCNC(=N)N)C(=O)N[C@@H](CCCNC(=N)N)C(=O)N[C@@H](C)C(=O)N[C@@H](Cc1c[nH]c2ccccc12)C(=O)N[C@@H](CC(C)C)C(=O)N[C@@H](Cc1c[nH]cn1)C(=O)N[C@@H](CCCCN)C(=O)N[C@@H](CC(C)C)C(=O)N[C@H](C(=O)N[C@@H](C)C(=O)N[C@@H](CCC(=O)O)C(=O)N[C@H](C(=O)N[C@@H](Cc1c[nH]cn1)C(=O)N[C@H](C(=O)N[C@@H](C)C(=O)N[C@@H](CCC(=O)O)C(=O)N[C@H](C(N)=O)[C@@H](C)CC)[C@@H](C)O)[C@@H](C)CC)[C@@H](C)CC)[C@@H](C)CC` [compound 1953, TMR-dW12, W23-LA-PTH(5-36)] (H-IQLMHQR[dW]K(5TAMRA)WIQDARRRAWLHKLIAEIHTAEI-NH2; N-terminus assumed), for which the “ligand internalization (TMR fluorescence)” value on PTHR1 [3] was “did not internalize”.
As for “^125I-Nle^8, dTrp^12, Trp^23, Tyr^36-LA-PTH(5-36)-1954”, the “dissociation from the PTHR1 compared with ^125I-Tyr^36-PTHrP(5-36)-836 and ^125I-M-PTH(1-15)-779” value at PTHR1 [4] is given as “dissociated more slowly”.

The record behind these values is patent US20190119348A1, “PARATHYROID HORMONE RECEPTOR 1 ANTAGONIST AND INVERSE AGONIST POLYPEPTIDES AND METHODS OF THEIR USE” (The General Hospital Corporation, priority 2016, published 2019).
